Among the data in PubChem BioAssay AID1503 (Sanford-Burnham Center for Chemical Genomics, 2009) are MIC values, retold here.

Converted amounts (≈) assume the structure as drawn. The source made the active and inactive calls.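 How the source made its calls: active means compounds whose lowest dose cutting E. coli growth over twofold at 37 C is below a set limit; inactive means the rest.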 Bounds are passed on as bounds.

The test system of the first experiment is E. coli growth, OD530, overnight, 37 C. Nature of the experiment: antibacterial MIC against E. coli – 37 and 42 C, DnaK modulator project, SAR follow-up (AID 1503).
Conditions: not given
Consider `Cc1ccc(C(=O)NCc2ccc(F)cc2)o1`, for which the MIC is > 4000 µM (inactive).

Take `CC(Cc1ccc(F)cc1)NC(=O)c1cccs1` (configuration not stated): the MIC is > 10000 µM (inactive).

Turning to `O=C(Nc1ccc2[nH]ccc2c1)c1cccs1`, the MIC is 400 µM (≈ 96.9 µg/mL).

Turning to `Cc1ccc(C(=O)NCc2ccc(Cl)cc2)o1`, the MIC was > 4000 µM (inactive).

Turning to `Nc1ccc2c(ccn2C(=O)c2cccs2)c1`, the MIC was < 4000 µM (inactive).

In the case of `O=C(NCc1ccccc1F)c1cccs1`, the MIC was > 4000 µM (inactive).

As for `Cc1ccc(CNC(=O)c2ccc([N+](=O)[O-])o2)cc1`, the MIC is 250 µM (≈ 65.1 µg/mL).

As to `O=C(NCc1ccccc1Br)c1cccs1`, the MIC is > 4000 µM (inactive).

Staying with this experiment, now noted: measured here: E. coli MIC at 42 C.
As for `CC(Cc1ccc(F)cc1)NC(=O)c1cccs1` (configuration not stated), the MIC is > 10000 µM.

For the compound `O=C(Nc1ccc2[nH]ccc2c1)c1cccs1`, the MIC is 400 µM (≈ 96.9 µg/mL).

Turning to `Nc1ccc2c(ccn2C(=O)c2cccs2)c1`, the MIC is > 4000 µM.

The compound `Cc1ccc(CNC(=O)c2ccc([N+](=O)[O-])o2)cc1` had an MIC of 250 µM (≈ 65.1 µg/mL).

Usually MIC stands for the least concentration at which growth counts as inhibited.
